Common to all, as to assay: growth of human tumour cells (NCI), 48 h
Test [1] concerns HCT-116.
Test [2] relates to MCF7.
Test [3] deals with OVCAR-3.
Test [4] concerns OVCAR-8.
The subject of test [5] is UACC-257.
Test [6] concerns TK-10.
The test system of test [7] is MDA-MB-231.
For test [8], the system named is CCRF-CEM.
Test [9] concerns PC-3.
Test [10] concerns UO-31.
For test [11], the system named is HL-60.
The test system of test [12] is MOLT-4.
For test [13], the system named is SNB-19.
Test [14] deals with SW-620.
In test [15] the test system is MDA-N.
For test [16], the system named is SF-539.
For test [17], the system named is A549.
Test [18] concerns IGROV-1.
For test [19], the system named is M14.
Test [20] concerns SR.

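Method: 48-hour compound exposure of cells in 96-well plates, five concentrations, linear interpolation of endpoints. Here, GI50 denotes the concentration required for 50% inhibition of growth.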 Calls of active or inactive are those of the source. Rule as the data show it: active = GI50 up to about 1.1 µM and inactive = higher.

As for `CCCCS/C(=C(/C#N)C(N)=O)c1cc2c([nH]1)CCCC2`, the GI50 in test [1] is 11 µM (inactive); in test [2] it was 10.3 µM (inactive); in test [3] it was 15.7 µM (inactive); in test [4], 15.6 µM (inactive); in [5], 14.3 µM (inactive); in test [6], 15.3 µM (inactive). Further, the GI50 is 13.1 µM (inactive) in test [7]; 6.7 µM (inactive) in test [8]; 11.4 µM (inactive) in test [9]; 13.1 µM (inactive) in test [10]; 3.67 µM (inactive) in test [11]; 10 µM (inactive) in test [12]. The GI50 in test [13] is 19.1 µM (inactive); in test [14], 6.12 µM (inactive); in test [15], 4.19 µM (inactive); in [16], 14.7 µM (inactive); in test [17], 21.9 µM (inactive).

As for `CN1CCN(c2ccncc2S(=O)(=O)N2CCN(C)CC2)CC1`, the GI50 in [1], in test [2], in [18], in test [3], in [4] and in test [5] was > 100 µM (inactive) each time. The GI50 in test [6], in [7], in [19], in test [9], in [10] and in test [13] was > 100 µM (inactive) throughout. In addition, the GI50 in [14], in test [15], in test [16] and in test [17] was > 100 µM (inactive) in each case.

`COC(=O)c1ccc2c(c1)sc1nc(-c3ccc(OC)cc3)cn12`: the GI50 in test [1] is > 100 µM (inactive); in test [2], 66.2 µM (inactive); in test [18], 48.2 µM (inactive); in [3], > 100 µM (inactive); in test [4], 91.4 µM (inactive); in test [5] it was 49 µM (inactive). Also, the GI50 in test [6] was > 100 µM (inactive); in test [7] it was > 100 µM (inactive); in test [8] it was 39.9 µM (inactive); in test [19] it was > 100 µM (inactive); in test [9] it was > 100 µM (inactive); in [10], > 100 µM (inactive). The GI50 in [11] is 25.1 µM (inactive); in test [12], > 100 µM (inactive); in test [13], 66.5 µM (inactive); in [14], > 100 µM (inactive); in test [15] it was 78.9 µM (inactive); in [16] it was 59.8 µM (inactive). For the same compound, in [17], the GI50 is > 100 µM (inactive).

As to `Cc1cnc(Cl)nc1C(C#N)c1nc2ccccc2s1` (centres undefined), the GI50 in [1] was 10.5 µM (inactive); in test [18], 21.6 µM (inactive); in test [3], 25.5 µM (inactive); in [4], 25.7 µM (inactive); in [5], 31.7 µM (inactive); in [6] it was 24.8 µM (inactive). Besides, the GI50 in [7] was 40.9 µM (inactive); in test [19], 28 µM (inactive); in [10], 31.7 µM (inactive); in test [12], 63.5 µM (inactive); in test [13], 34.2 µM (inactive); in test [14], 33.6 µM (inactive). For the same compound, the GI50 in test [15] was 15 µM (inactive); in [16] it was 25.8 µM (inactive); in [17], 29 µM (inactive).

As to `COc1ccc(OC)c([N+](=O)[O-])c1-c1nc2sc(Cl)cn2c1/C=N/N=C(N)N`, the GI50 in [1] is 58.3 µM (inactive); in [2], 9.89 µM (inactive); in [18] it was 12.9 µM (inactive); in [3], 16 µM (inactive); in [4], 19.2 µM (inactive); in test [5], 19.3 µM (inactive). Besides, the GI50 in [6] was 25.2 µM (inactive); in [7], 15.1 µM (inactive); in test [8] it was 30.9 µM (inactive); in test [19], 34.4 µM (inactive); in test [9], 13.8 µM (inactive); in [10] it was 16.7 µM (inactive). The GI50 in test [11] was 11.2 µM (inactive); in [12], 4.9 µM (inactive); in test [13], 19.4 µM (inactive); in test [14], 20.2 µM (inactive); in [20], 14.2 µM (inactive); in [16] it was 22.9 µM (inactive). In addition, the GI50 in test [17] was 23.2 µM (inactive).

Take `NS(=O)(=O)c1nnc(NS(=O)(=O)c2ccc([N+](=O)[O-])cc2)s1`: the GI50 in [1], in test [2], in test [18], in test [3], in test [4] and in test [6] was > 100 µM (inactive) each time. In addition, the GI50 in test [7] was > 100 µM (inactive); in test [19] it was > 100 µM (inactive); in test [9], > 100 µM (inactive); in [10] it was > 100 µM (inactive); in test [11], > 100 µM (inactive); in test [12], 26.3 µM (inactive). Moreover, the GI50 in test [14] was > 100 µM (inactive); in [20], 32.7 µM (inactive); in test [16] it was > 100 µM (inactive); in [17], > 100 µM (inactive).

In the case of `CCOC(=O)Cc1c(C)c2cc(C(=O)c3ccccc3)c(O)cc2oc1=O`, the GI50 in test [1] was 33.3 µM (inactive); in [2], 22.4 µM (inactive); in test [18], 39.6 µM (inactive); in test [3], 17.8 µM (inactive); in test [4], 34.1 µM (inactive); in test [5] it was 28.7 µM (inactive). Besides, the GI50 in [6] was 43.4 µM (inactive); in [7], 23.8 µM (inactive); in test [8], 31.1 µM (inactive); in test [19], 34.3 µM (inactive); in test [9], 24.8 µM (inactive); in [11] it was 24.4 µM (inactive). Further, the GI50 in test [12] is 36.1 µM (inactive); in test [13] it was 33.7 µM (inactive); in [14], 45.1 µM (inactive); in [15], 33.3 µM (inactive); in test [16], 20.4 µM (inactive); in test [17] it was 25.8 µM (inactive).

Take `CN1CCN(C(=S)N(C)C(=O)c2ccc(Cl)cc2)CC1`: the GI50 in [2], in test [18], in test [3], in test [4], in test [5] and in test [6] was > 100 µM (inactive) each time. Further, the GI50 in test [7], in test [8], in test [19], in [10], in [11] and in test [12] was > 100 µM (inactive) throughout. Further, the GI50 in [13] was > 100 µM (inactive); in [14] it was > 100 µM (inactive); in test [20], > 10 µM (inactive); in [15] it was > 100 µM (inactive); in test [17] it was > 100 µM (inactive).

With `CC(C)(C)C1=CC(=C2C=Cc3cc(O)ccc3O2)C=C(C(C)(C)C)C1=O`, the GI50 in test [1] was 1.17 µM (inactive); in [2], 1.07 µM (active); in test [18] it was 1.59 µM (inactive); in test [3], 1.21 µM (inactive); in test [4], 1.7 µM (inactive); in test [5], 1.57 µM (inactive). Besides, the GI50 was 1.7 µM (inactive) in [6]; 1.7 µM (inactive) in test [7]; 0.745 µM (active) in [8]; 1.69 µM (inactive) in [19]; 1.57 µM (inactive) in test [9]; 1.24 µM (inactive) in test [10]. In addition, the GI50 in test [11] is 1.08 µM (active); in test [12] it was 0.435 µM (active); in [13], 1.77 µM (inactive); in test [14] it was 1.38 µM (inactive); in test [20], 0.731 µM (active); in [16], 1.87 µM (inactive). Also, the GI50 in test [17] was 1.5 µM (inactive).

Regarding `Cc1ccccc1NC(=N)Nc1ccccc1C`, the GI50 in [1], in test [2], in test [18], in test [3], in [4] and in [5] was > 100 µM (inactive) in each case. Moreover, the GI50 is > 100 µM (inactive) in [6]; > 100 µM (inactive) in [7]; > 100 µM (inactive) in [8]; 66.8 µM (inactive) in [19]; > 100 µM (inactive) in [9]; > 100 µM (inactive) in test [11]. Besides, the GI50 in [12], in [13], in test [14], in test [15], in [16] and in test [17] was > 100 µM (inactive) throughout.

On to `CCOc1ccc(NCc2cc(OC)c(OC)c(OC)c2)cc1`, for which the GI50 in test [1] was 0.427 µM (active); in test [2], 0.435 µM (active); in [18], 1.49 µM (inactive); in test [3] it was 0.339 µM (active); in [5], 20.9 µM (inactive); in [7], 2.5 µM (inactive). In addition, the GI50 was 0.371 µM (active) in [19]; 1.5 µM (inactive) in [9]; 4.8 µM (inactive) in [10]; 0.257 µM (active) in [11]; 0.582 µM (active) in [12]; 1.95 µM (inactive) in [13]. The GI50 in [14] is 0.35 µM (active); in test [20], 0.256 µM (active); in [16], 0.486 µM (active); in test [17], 0.847 µM (active).

For the compound `O=C1Cc2c([nH]c3ccc(Br)cc23)-c2cc(O)c(O)cc2N1`, the GI50 in test [2], in test [3], in [4], in [5], in test [6] and in [7] was > 100 µM (inactive) in each case. The GI50 in test [19] was > 100 µM (inactive); in test [9], > 100 µM (inactive); in [10] it was > 100 µM (inactive); in [12], 71.8 µM (inactive); in test [13] it was > 100 µM (inactive); in [14], > 100 µM (inactive). The GI50 in [15] and in [17] was > 100 µM (inactive) throughout.

Values taken from ChEMBL document CHEMBL1201862, “PubChem BioAssay data set” (2004).
